# Reference: patent US9012651B2, “TRPV3 modulators” (AbbVie Inc., priority 2011, dated 2015)
# Molecular target: human TRPV3 receptors (Homo sapiens (Human), UniProt Q8NET8)
# Test: Calcium flux assay (FLIPR TETRA), inhibition of the 2-APB response
# Format: cell-based
# Details: recombinant HEK293 cells stably expressing TRPV3, Calcium-4 dye, 2-APB at its EC80
# How it was run: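 Responses are given relative to the maximal 2-APB signal in the absence of compound, using peak fluorescence over baseline. Measured by FLIPR Tetra calcium flux in stable human and mouse TRPV3 HEK293 cells after 90-120 min dark dye incubation.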
# Sequence of human TRPV3 receptors (Q8NET8 whole entry): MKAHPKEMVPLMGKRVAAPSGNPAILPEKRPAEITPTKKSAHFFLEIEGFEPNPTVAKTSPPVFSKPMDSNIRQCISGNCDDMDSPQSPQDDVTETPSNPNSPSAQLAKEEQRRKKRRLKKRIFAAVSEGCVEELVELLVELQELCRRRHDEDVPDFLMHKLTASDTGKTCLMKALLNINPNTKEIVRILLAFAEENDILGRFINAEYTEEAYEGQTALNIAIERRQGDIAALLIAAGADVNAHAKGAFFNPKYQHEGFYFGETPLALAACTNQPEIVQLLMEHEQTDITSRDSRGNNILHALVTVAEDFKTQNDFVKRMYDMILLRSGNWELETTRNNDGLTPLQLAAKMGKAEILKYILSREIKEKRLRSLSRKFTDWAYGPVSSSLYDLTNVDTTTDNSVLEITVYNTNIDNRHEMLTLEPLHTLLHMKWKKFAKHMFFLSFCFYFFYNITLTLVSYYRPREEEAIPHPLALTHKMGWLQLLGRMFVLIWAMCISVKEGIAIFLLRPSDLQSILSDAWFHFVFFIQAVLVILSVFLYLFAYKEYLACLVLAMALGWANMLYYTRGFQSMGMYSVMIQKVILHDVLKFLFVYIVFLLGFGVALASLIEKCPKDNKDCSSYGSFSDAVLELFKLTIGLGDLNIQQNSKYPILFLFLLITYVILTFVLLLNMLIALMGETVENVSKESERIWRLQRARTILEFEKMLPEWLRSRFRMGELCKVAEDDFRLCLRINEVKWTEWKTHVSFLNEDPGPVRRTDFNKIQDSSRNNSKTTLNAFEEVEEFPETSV
row,Compound,IC50 [nM]
1,"CC1CCC(c2ccc(F)c(CN[C@@H](CO)C(C)C)n2)CC1 (stereo partly drawn) [Example 200, (2R)-2-({[3-fluoro-6-(4-methylcyclohexyl)pyridin-2-yl]methyl}amino)-3-methylbutan-1-ol]",1030
2,"OC(CCNCc1ccnc(-c2ccc(C(F)(F)F)cc2)n1)c1ccccc1 (stereo not drawn) [Example 164, 1-phenyl-3-[({2-[4-(trifluoromethyl)phenyl]pyrimidin-4-yl}methyl)amino]propan-1-ol]",> 20000
3,"CC(C)[C@H](CO)NCc1nc(-c2cnc(C(F)(F)F)nc2)ccc1F [Example 113, (2R)-2-[({3-fluoro-6-[2-(trifluoromethyl)pyrimidin-5-yl]pyridin-2-yl}methyl)amino]-3-methylbutan-1-ol]",2650
4,"OCC1(NCc2nc(-c3ccc(C(F)(F)F)cc3)ccc2F)CCC1 [Example 79, {1-[({3-fluoro-6-[4-(trifluoromethyl)phenyl]pyridin-2-yl}methyl)amino]cyclobutyl}methanol]",700
5,"CC(C)[C@H](CO)NCc1nc(N2Cc3cccc(F)c3C2)ccc1F [Example 94, (2R)-2-({[3-fluoro-6-(4-fluoro-1,3-dihydro-2H-isoindol-2-yl)pyridin-2-yl]methyl}amino)-3-methylbutan-1-ol]",120
6,"CC(C)(C)[C@H](CO)NCc1nc(-c2ccc(C(F)(F)F)cc2)ccc1F [Example 85, (2R)-2-((3-fluoro-6-(4-(trifluoromethyl)phenyl)pyridin-2-yl)methylamino)-3,3-dimethylbutan-1-ol]",520
7,"CCCCOc1ccc(-c2cccc(CN[C@@H](CO)C(C)C)n2)cc1Cl [Example 262, (2R)-2-({[6-(4-butoxy-3-chlorophenyl)pyridin-2-yl]methyl}amino)-3-methylbutan-1-ol]",810
8,"CC(C)[C@H](CO)NCc1nc(-c2cccc(S(=O)(=O)N(C)C)c2)ccc1F [Example 39, 3-[5-fluoro-6-({[(2R)-1-hydroxy-3-methylbutan-2-yl]amino}methyl)pyridin-2-yl]-N,N-dimethylbenzenesulfonamide]",1700
9,"CC(C)[C@H](CO)NCc1nc(-c2cccc(C(=O)N(C)Cc3ccccc3)c2)ccc1F [Example 58, N-benzyl-3-[5-fluoro-6-({[(2R)-1-hydroxy-3-methylbutan-2-yl]amino}methyl)pyridin-2-yl]-N-methylbenzamide]",1490
10,"CC(C)[C@H](CO)NCc1nc(C2CC3CCC2C3)ccc1F (stereo partly drawn) [Example 199, (2R)-2-({[6-(bicyclo[2.2.1]hept-2-yl)-3-fluoropyridin-2-yl]methyl}amino)-3-methylbutan-1-ol]",1590
11,"CC(C)[C@H](CO)NCc1nc(-c2cccc(C(=O)N(C)C3CCCCC3)c2)ccc1F [Example 52, N-cyclohexyl-3-[5-fluoro-6-({[(2R)-1-hydroxy-3-methylbutan-2-yl]amino}methyl)pyridin-2-yl]-N-methylbenzamide]",1420
12,CC(C)[C@H](CO)NCc1cccc(OC(C)(C)C)n1 [Example 26],4060
13,"CC[C@H](CO)NCc1nc(-c2ccc(C(F)(F)F)nc2)ccc1F [Example 78, (2R)-2-({[5-fluoro-6′-(trifluoromethyl)-2,3′-bipyridin-6-yl]methyl}amino)butan-1-ol]",10200
14,"CCC(C)C(CO)NCc1ccnc(-c2ccc(C(F)(F)F)cc2)n1 (stereo not drawn) [Example 143, 3-methyl-2-[({2-[4-(trifluoromethyl)phenyl]pyrimidin-4-yl}methyl)amino]pentan-1-ol]",12400
15,"CC(C)[C@H](CO)NCc1nc(-c2ccc(C(F)(F)F)nc2)ccc1Cl [Example 110, (2R)-2-({[5-chloro-6′-(trifluoromethyl)-2,3′-bipyridin-6-yl]methyl}amino)-3-methylbutan-1-ol]",630
16,"CC(=O)c1cccc(-c2ccc(F)c(CN[C@@H](CO)C(C)C)n2)c1F [Example 37, 1-{2-fluoro-3-[5-fluoro-6-({[(2R)-1-hydroxy-3-methylbutan-2-yl]amino}methyl)pyridin-2-yl]phenyl}ethanone]",1190
17,"CC(=O)c1cccc(-c2ccc(F)c(CN[C@@H](CO)C(C)C)n2)c1 [Example 40, 1-{3-[5-fluoro-6-({[(2R)-1-hydroxy-3-methylbutan-2-yl]amino}methyl)pyridin-2-yl]phenyl}ethanone]",1400
18,"CC[C@H](CO)NCc1nc(-c2ccc(C(F)(F)F)cc2)ccc1F [Example 77, (2R)-2-[({3-fluoro-6-[4-(trifluoromethyl)phenyl]pyridin-2-yl}methyl)amino]butan-1-ol]",540
19,"CC(C)(O)[C@H](CO)NCc1ccnc(-c2ccc(C(F)(F)F)nc2)n1 [Example 189, (2S)-3-methyl-2-[({2-[6-(trifluoromethyl)pyridin-3-yl]pyrimidin-4-yl}methyl)amino]butane-1,3-diol]",> 20000
20,"O[C@H]1CCC[C@@H]1NCc1ccnc(-c2ccc(C(F)(F)F)cc2)n1 [Example 174, (1S,2S)-2-[({2-[4-(trifluoromethyl)phenyl]pyrimidin-4-yl}methyl)amino]cyclopentanol]",> 20000
21,"CC(C)[C@H](CO)NCc1cccc(-c2ccc(C(F)(F)F)nc2)n1 [Example 69, (2R)-3-methyl-2-({[6′-(trifluoromethyl)-2,3′-bipyridin-6-yl]methyl}amino)butan-1-ol]",3720
22,"O[C@H]1CCCC[C@@H]1NCc1ccnc(-c2ccc(C(F)(F)F)cc2)n1 [Example 171, (1S,2S)-2-[({2-[4-(trifluoromethyl)phenyl]pyrimidin-4-yl}methyl)amino]cyclohexanol]",5510
23,"CCC[C@H](CO)NCc1nc(-c2ccc(C(F)(F)F)cc2)ccc1F [Example 83, (2R)-2-[({3-fluoro-6-[4-(trifluoromethyl)phenyl]pyridin-2-yl}methyl)amino]pentan-1-ol]",460
24,"CCC[C@H](CO)NCc1ccnc(-c2ccc(C(F)(F)F)cc2)n1 [Example 141, (2R)-2-[({2-[4-(trifluoromethyl)phenyl]pyrimidin-4-yl}methyl)amino]pentan-1-ol]",4900
25,"CC(C)[C@H](CO)NCc1nc(-c2cccc(N(C)C)c2)ccc1F [Example 43, (2R)-2-[({6-[3-(dimethylamino)phenyl]-3-fluoropyridin-2-yl}methyl)amino]-3-methylbutan-1-ol]",460
26,"CC(C)[C@H](CO)NCc1ccc(F)c(-c2ccc(C(F)(F)F)nc2)n1 [Example 109, (2R)-2-({[3-fluoro-6′-(trifluoromethyl)-2,3′-bipyridin-6-yl]methyl}amino)-3-methylbutan-1-ol]",3590

# The remaining lines, values ahead:
row,IC50 [nM],Compound
1,700,"Cc1cc(-c2ccc(F)c(CN[C@@H](CO)C(C)C)n2)cnc1N1CCOCC1 [Example 253, (2R)-2-({[5-fluoro-5′-methyl-6′-(morpholin-4-yl)-2,3′-bipyridin-6-yl]methyl}amino)-3-methylbutan-1-ol]"
2,290,"CC(C)[C@H](CO)NCc1nc([C@H]2CC[C@H](C(F)(F)F)CC2)ccc1F [Example 258, (2R)-2-[({3-fluoro-6-[trans-4-(trifluoromethyl)cyclohexyl]pyridin-2-yl}methyl)amino]-3-methylbutan-1-ol]"
3,80,"CC(C)[C@H](CO)NCc1nc(-c2cc(F)cc(F)c2)ccc1F [Example 247, (2R)-2-({[6-(3,5-difluorophenyl)-3-fluoropyridin-2-yl]methyl}amino)-3-methylbutan-1-ol]"
4,520,"CC(C)[C@H](CO)NCc1nc(-c2cc3c(OCc4ccccc4)cccc3n2C(=O)OC(C)(C)C)ccc1F [Example 259, tert-butyl 4-(benzyloxy)-2-[5-fluoro-6-({[(2R)-1-hydroxy-3-methylbutan-2-yl]amino}methyl)pyridin-2-yl]-1H-indole-1-carboxylate]"
5,1110,"COc1ccc(C#Cc2ccc(F)c(CN[C@@H](CO)C(C)C)n2)cc1 [Example 235, (2R)-2-[({3-fluoro-6-[(4-methoxyphenyl)ethynyl]pyridin-2-yl}methyl)amino]-3-methylbutan-1-ol]"
6,5670,"CC(C)[C@H](CO)NCc1nc(C2CCCC3(C2)OCCO3)ccc1F (stereo partly drawn) [Example 215, (2R)-2-({[6-(1,4-dioxaspiro[4.5]dec-7-yl)-3-fluoropyridin-2-yl]methyl}amino)-3-methylbutan-1-ol]"
7,> 20000,"CC(C)[C@H](CO)NCc1nc(-c2cnn(CC3OCCO3)c2)ccc1F [Example 250, (2R)-2-[({6-[1-(1,3-dioxolan-2-ylmethyl)-1H-pyrazol-4-yl]-3-fluoropyridin-2-yl}methyl)amino]-3-methylbutan-1-ol]"
8,140,"CC(C)[C@H](CO)NCc1nc(C2=CCC(F)(F)CC2)ccc1F [Example 224, (2R)-2-({[6-(4,4-difluorocyclohex-1-en-1-yl)-3-fluoropyridin-2-yl]methyl}amino)-3-methylbutan-1-ol]"
9,990,"CC(C)[C@H](CO)NCc1cccc(C#Cc2ccccc2F)n1 [Example 285, (2R)-2-[({6-[(2-fluorophenyl)ethynyl]pyridin-2-yl}methyl)amino]-3-methylbutan-1-ol]"
10,530,"CC(C)[C@H](CO)NCc1nc(C2CCC(F)(F)CC2)ccc1F [Example 203, (2R)-2-({[6-(4,4-difluorocyclohexyl)-3-fluoropyridin-2-yl]methyl}amino)-3-methylbutan-1-ol]"
11,18500,"COCC(CO)NCc1ccnc(-c2ccc(S(=O)(=O)C(F)(F)F)cc2)n1 (stereo not drawn) [Example 210, 3-methoxy-2-{[(2-{4-[(trifluoromethyl)sulfonyl]phenyl}pyrimidin-4-yl)methyl]amino}propan-1-ol]"
12,120,"CC(C)[C@H](CO)NCc1nc(-c2cc3ccccc3n2C(=O)OC(C)(C)C)ccc1F [Example 273, tert-butyl 2-[5-fluoro-6-({[(2R)-1-hydroxy-3-methylbutan-2-yl]amino}methyl)pyridin-2-yl]-1H-indole-1-carboxylate]"
13,170,"CC(C)[C@H](CO)NCc1nc(C#CCCC2CCCCC2)ccc1F [Example 288, (2R)-2-({[6-(4-cyclohexylbut-1-yn-1-yl)-3-fluoropyridin-2-yl]methyl}amino)-3-methylbutan-1-ol]"
